The target of experiment [1] is T1, HLA-A*0201 molecules on T2 cells (Homo sapiens, UniProt P04439, D140Y/D185E/D98H/E176V/E277Q/G131W/G231S/I119V/I121R/I166T/I218V/L300P/L318F/N151K/N90K/P208A/P217A/Q86G/Q94H/R138H/R169H/T345S).
T1 construct: endogenous in cells; host or cells: T2 cells
As to the kind of experiment: class I HLA stabilization assay on T2 cells (flow cytometry, anti-HLA-A2 antibody). The experiment is classed as cell-based. Conditions: for relative fluorescence intensity (RFI), percentage increase of mean fluorescence above negative controls: T2 cells, β2-microglobulin 10μg/mL, peptide 10μg/mL (Fig 1 legend: 100μg/mL), 16h 37°C, then Brefeldin A 2h; for affinity for HLA-A2 molecule (stabilization on T2 cells), class in words: T2 cell stabilization assay. As for the experimental part: The affinity of peptides for HLA-A*0201 molecules was evaluated by using the stabilization assay as previously described. Briefly, T2 cells were incubated with human β2-microglobulin at a final concentration of 10μg/mL in the presence or not of peptides at 10μg/mL for 16h at 37°C in 5% CO2. Cells were then incubated with 5μg/mL Brefeldin A (Sigma-Aldrich, St. Louis, MO) for 2h at 37°C. Expression of HLA-A*0201 on T2 cells was then determined by staining with fluorescein isothiocyanate-labelled anti-HLA-A2 antibody (BD Biosciences, San Jose, CA) and analyzed by flow cytometry using FACScan (BD Biosciences, San Jose, CA). Results were expressed in relative fluorescence intensity (RFI) calculated as the percentage increase of the mean fluorescence above that of the negative controls.
The sequence of 33 different clones of potentially ES proteins has been used. Based on computer software predictions, putative class I HLA-restricted T cell epitopes were identified. Twenty proteins were able to generate a total of 78 nonameric peptides that could be loaded by HLA-A*0201 molecule (Table 2). Subsequently, we have evaluated the binding affinity of these peptides to HLA-A*0201 molecules by class I HLA stabilization assay. This assay measures the increase of HLA-A*0201 molecules induced on T2 cells following exposure to exogenous HLA-A*0201 binding peptides, with high affinity peptides inducing HLA-A*0201 up-regulation more strongly than low-affinity peptides. Individual results are shown on Fig 1A. The 78 tested peptides were classified into 3 groups regarding the percentage of RFI.
Fig 1 Binding affinity of LmES peptides to HLA-A*0201 molecules. The affinities of selected peptides were determined by class I HLA stabilization assay. (A) Results for individual peptides. T2 cells were initially incubated with 100μg (final concentration) of each of the peptides/mL for 16h at 37°C, followed by incubation at 37°C for 2h in presence of Brefeldine A. HLA-A2 expression on these cells was analyzed by flow cytometry using the BB7.2 antibody. MHC stabilization efficiency for each peptide was calculated as the percentage increase of the mean fluorescence above that of the negative controls. Results were expressed as relative fluorescence intensity (RFI). (B) Box plot results. ++: RFI ranges from 200 to 300%, +: RFI ranges from 100 to 200%, and -: RFI ranges from 0 to 100%.

Experiment [2] relates to PBMCs. Put plainly: Granzyme B production by stimulated PBMCs (ELISA of culture supernatants). The settings on record: PBMCs of 3 HLA-A*0201+ and 3 HLA-A*0201- immune (healed ZCL) donors, peptide 20μg/mL, 5 days; 24 peptides tested. The experiment is classed as cell-based, human. As for the experimental part:
To assess whether the selected peptides could stimulate or not CD8^+ T cells, we have analysed the induction of GrB and IFN-γ by stimulated PBMCs from healed ZCL individuals. PBMCs separated from heparinized blood samples using Ficoll-Hypaque (Sigma-Aldrich, St. Louis, MO) density gradient centrifugation were resuspended in RPMI 1640 medium (Sigma-Aldrich, St. Louis, MO) supplemented with 2mM L-Glutamine (Sigma-Aldrich, St. Louis, MO), 1mM sodium pyruvate (Gibco, Invitrogen, Grand Island, NY), 100U/mL Penicillin (Sigma-Aldrich, St. Louis, MO), 100μg/mL Streptomycin (Sigma-Aldrich, St. Louis, MO), 10mM HEPES (Gibco, Invitrogen, Grand Island, NY), 20μg/mL Gentamicin (Gibco, Invitrogen, Grand Island, NY), 1X non-essential amino acids (Gibco, Invitrogen, Grand Island, NY), 2-mercaptoethanol (Gibco, Invitrogen, Grand Island, NY), and 10% (v/v) heat-inactivated human AB serum (Sigma-Aldrich, St. Louis, MO), [complete medium] at a concentration of 1.0x10^6 cells/mL. Peptide pools were prepared instantly by dilution with phosphate buffered saline and then added to the cell culture at a final concentration of 1μg/mL. In some experiments, peptides were added separately to the culture at a concentration of 20μg/mL. As positive control, PBMCs were stimulated with 10ng/mL of phorbol 12-myristate 13-acetate (PMA) (Sigma-Aldrich, St. Louis, MO) and 50ng/mL Ionomycin (Sigma-Aldrich, St. Louis, MO). All cultures were incubated at 37°C in 5% CO2 for 5 days. Culture supernatants were then harvested and frozen at -80°C until use.
Granzyme B (GrB), IFN-γ, and IL-10 levels in culture supernatants were quantified with an enzyme-linked immunosorbent (ELISA) assay (MABTECH AB, Nacka Strand, Sweden) for the first one and OptEIA set ELISA assay kit (BD Biosciences, San Jose, CA) for the others. The results were expressed as pg/mL based on the standards provided by the kits. Quantification thresholds were fixed to 100pg/mL for GrB, 45pg/mL for IFN-γ, and 20pg/mL for IL-10.
Fig 2 Peptides grouped in pools induced GrB production. (A) PBMCs from 5 HLA-A*0201^+-donors with a history of ZCL in response to stimulation with peptide pools at a final concentration of 1μg/mL per peptide or (B) SLA (10μg/mL) and PMA/Ionomycin (10ng/mL and 50ng/mL, respectively) as positive controls. GrB production was assessed in culture supernatants using ELISA. (C) Rank of the peptide pools. +: mean pool rank, -: median.
Fig 3 GrB induction by the selected peptides. (A) PBMCs from HLA-A*0201^+ (black mark) and HLA-A*0201^- (white mark) -healed ZCL individuals were stimulated with selected peptides separately. The supernatant was collected after 5 days of incubation and assayed for GrB production.
Background: ELISA stands for enzyme-linked immunosorbent assay.

Take “ELLGNLEEV [D6, nonamer … from L. major ES protein Pr 31]”: the “relative fluorescence intensity (RFI), percentage increase of mean fluorescence above negative controls” value in experiment [1] is given as more than 200%.

With “FMEVFGMLV [G2, nonamer … from L. major ES protein Pr 78]”, in experiment [2], the “GrB induction by individual peptides” value is given as “highest levels of GrB”. Also, in experiment [1], the “affinity for HLA-A2 molecule (stabilization on T2 cells), class in words” value (from here on “affinity for HLA-A2 molecule”) is on record as “high” and the “relative fluorescence intensity (RFI), percentage increase of mean fluorescence above negative controls” value is given as more than 200%.

As for “MLLWTAVAV [E1, nonamer … from L. major ES protein Pr 37]”, the “relative fluorescence intensity (RFI), percentage increase of mean fluorescence above negative controls” value in experiment [1] was more than 200%.

Regarding “MLVQSCTSI [G3, nonamer … from L. major ES protein Pr 78]”, in experiment [2], the “GrB induction by individual peptides” value is reported as “highest levels of GrB”. For the same sequence, in experiment [1], the “affinity for HLA-A2 molecule” value is listed as “high” and the “relative fluorescence intensity (RFI), percentage increase of mean fluorescence above negative controls” value is listed as more than 200%. As for “PLSPATRRL [E6, nonamer … from L. major ES protein Pr 38]”, the “GrB induction by individual peptides” value in experiment [2] is recorded as “highest levels of GrB”.

As for “SLQFSAFLL [G1, nonamer … from L. major ES protein Pr 78]”, in experiment [1], the “relative fluorescence intensity (RFI), percentage increase of mean fluorescence above negative controls” value is more than 200%. Regarding “TLGVKQMVV [F6, nonamer … from L. major ES protein Pr 74 (elongation factor 1-alpha)]”, the “GrB induction by individual peptides” value in experiment [2] is reported as “highest levels of GrB”. For the same sequence, in experiment [1], the “affinity for HLA-A2 molecule” value is “high” and the “relative fluorescence intensity (RFI), percentage increase of mean fluorescence above negative controls” value was more than 200%.

Consider “VVSVLTHSV [G4, nonamer … from L. major ES protein Pr 78]”, for which the “GrB induction by individual peptides” value in experiment [2] is reported as “highest levels of GrB”. The “affinity for HLA-A2 molecule” value in experiment [1] is reported as “intermediate”. In the case of “YLRTFPAAL [E2, nonamer … from L. major ES protein Pr 37]”, in experiment [2], the “GrB induction by individual peptides” value is on record as “highest levels of GrB”. Moreover, the “affinity for HLA-A2 molecule” value in experiment [1] was “intermediate”.

(Values after article PMC4714855, “Prediction of T Cell Epitopes from Leishmania major Potentially Excreted/Secreted Proteins Inducing Granzyme B Production” (PLoS ONE, 2016).)
